For data set [1], the target named is monoclonal antibody 6D9, raised to phosphonate haptens (2.53) and (2.54). The settings on record: cited from earlier work.
Data set [2] deals with carboxypeptidase G2 (CPG2) (Pseudomonas sp., UniProt P06621). The settings on record: cited from earlier work.
For data set [3] the following is noted: mouse, in vivo, ip, 0.5 h; cited from earlier work.
Data set [4] concerns JAR human choriocarcinoma cell line. The note with it: cited from earlier work.
Data set [5] concerns the target catalytic monoclonal antibody DF8-D5 (IgG1), elicited to phosphonamidate ester hapten (7.2), hybridoma ECACC 96042612. Format: biochemical, mouse. The note with it: for Km / kcat / kcat/Km / kcat/kun: pH 6.5.
Data set [6] concerns the target monoclonal antibody EA11-D7 (IgG1), Appendix line 32, elicited to TSA (7.2). Format: binding, mouse.
Data set [7] concerns monoclonal antibody CC11-4B4 (IgG1), Appendix line 1, elicited to TSA (7.4). Format: binding, mouse. The settings on record: inhibition elisa; read-out: aK (ELISA) (converted). Background: An ELISA detects its analyte on a solid surface through an enzyme-linked reagent.
The subject of data set [8] is monoclonal antibody AB9-16H6 (IgG1), Appendix line 3, elicited to TSA (7.4). It counts as binding, mouse. The note with it: inhibition elisa; read-out: aK (ELISA) (converted).
Data set [9] deals with monoclonal antibody DG10-8G7 (IgG1), Appendix line 4, elicited to TSA (7.4). It counts as binding, mouse. The settings on record: inhibition elisa; read-out: aK (ELISA).
For data set [10], the system named is monoclonal antibody AC7-4A10 (IgG1), Appendix line 8, elicited to TSA (7.4). It counts as binding, mouse. The note with it: inhibition elisa; read-out: aK (ELISA) (converted).
For data set [11], the target named is monoclonal antibody CF6 (IgG1), Appendix line 13, elicited to TSA (7.2). Format: binding, mouse.
Data set [12] relates to monoclonal antibody CF7 (IgG2a), Appendix line 14, elicited to TSA (7.2). Format: binding, mouse.
Data set [13] relates to monoclonal antibody 49.AG.659.12. The note with it: cited from earlier work.
Data set [14] has as its system monoclonal antibody EA11-D7. Format: binding, mouse. The note with it: read-out: I50.
Data set [15] relates to antibody NPN43C9, elicited to phosphonamidate hapten (9.11). Details: kcat/Km: unit not given here. The settings on record: cited from earlier work; for Kd: read-out: Kd or Ki.
In data set [16] the test system is chorismate mutase (EC 5.4.99.5), E. coli enzyme. The settings on record: cited from earlier work.

Several values for one entry are separate records, joined by “and”; a condition that tells them apart may be missing. Equal entries are not always repeated.

carboxypeptidase G2 (CPG2), sequence (P06621 23-415): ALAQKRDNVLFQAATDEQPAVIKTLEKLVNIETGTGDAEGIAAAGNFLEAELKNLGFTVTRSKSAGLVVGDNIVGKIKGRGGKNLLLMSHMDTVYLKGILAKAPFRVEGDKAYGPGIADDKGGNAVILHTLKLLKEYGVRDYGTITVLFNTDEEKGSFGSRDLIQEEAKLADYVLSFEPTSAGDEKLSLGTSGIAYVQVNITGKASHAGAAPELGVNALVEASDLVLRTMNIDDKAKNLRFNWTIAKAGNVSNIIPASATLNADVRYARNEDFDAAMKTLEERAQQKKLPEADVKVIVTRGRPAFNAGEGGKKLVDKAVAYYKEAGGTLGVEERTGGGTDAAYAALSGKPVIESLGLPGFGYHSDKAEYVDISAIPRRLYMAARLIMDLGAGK

For orientation: Ki means the dissociation constant of the complex between target and ligand, obtained from inhibition or displacement. Regarding `O=C(N[C@H](CO)[C@H](OP(=O)(O)Cc1ccc(NC(=O)C(F)(F)F)cc1)c1ccc([N+](=O)[O-])cc1)C(Cl)Cl` [2.54], the Ki in data set [1] was 60 nM.
In the case of `O=C(Cc1ccc(NC(=O)C(F)(F)F)cc1)O[C@H](c1ccc([N+](=O)[O-])cc1)[C@@H](CO)NC(=O)C(Cl)Cl` [2.56], the “rate enhancement, kcat/kuncat” value in data set [1] is 1.8×10^3.
In general, Km refers to the concentration of substrate that gives half-maximal velocity. For the molecule `O=C(O)CC[C@H](NC(=O)c1ccc(N(CCCl)CCCl)cc1)C(=O)O` [3.4, para-[bis(2-chloroethyl)amino]benzoyl-Lglutamic acid], in [2], the Km was 4.9 µM. Also, in data set [3], the “mean concentration, Gut” value was 12.3; the “mean concentration, Kidney” value is on record as 2.9; the “mean concentration, Liver” value is reported as 22.0; the “mean concentration, Lung” value is reported as 0.2. In data set [3], the “mean concentration, Tumour” value is reported as less than 0.05.
`CS(=O)(=O)OCCN(CCCl)c1ccc(C(=O)O)cc1` [3.16]: in [4], the IC50 was 220000 ± 10000 nM.
A word on the Kd: it is the equilibrium constant for the complex coming apart. `CCOP(=O)(Cc1ccc(NC(=O)CCCC(=O)O)cc1)Nc1cc(C(=O)O)cc(C(=O)O)c1` (stereo not drawn) [7.6, Ethyl N-[(3,5-dicarboxy)phenyl]-P-[N-(4'-carboxybutyroyl)-4-aminophenylmethyl]phosphonamidate]: in data set [5], the Ki is 25 nM and 40 nM. This molecule also displayed a Kd in [6] of less than 4 nM.
In the case of `O=C(O)CCCC(=O)Nc1ccc(CP(=O)(O)Nc2cc(C(=O)O)cc(C(=O)O)c2)cc1` [7.7, N-[(3,5-Dicarboxy)phenyl]-P-[N-(4'-carboxybutyroyl)-4-aminophenyl-methyl]phosphonamidic acid], the IC50 in [7] was 76.9 nM; in data set [8], 833 nM; in data set [9], 10 nM; in data set [10], 0.455 nM.
`CCOP(=O)(Cc1ccc(N)cc1)Nc1cc(C(=O)O)cc(C(=O)O)c1` (stereo not drawn) [7.37, Ethyl N-[(3,5-dicarboxy)phenyl]-P-(4-aminophenylmethyl)phosphonamidate]: the “Ka (BIAcore)” value in data set [11] was determined as 2.19e+08 M⁻¹. Moreover, in data set [11] (biacore), the ka amounted to 56600 M⁻¹ s⁻¹ and the kd stood at 0.000258 s⁻¹. For the same molecule, the “Ka (BIAcore)” value in [12] was “no binding”. In addition, the “kd, mean” value in [6] (biacore) was found to be 2.54e-05 s⁻¹.
`O=C(Nc1cc(C(=O)O)cc(C(=O)O)c1)Oc1ccc(N(CCCl)CCCl)cc1` [9.2]: in the data set on LoVo cells, the “cytotoxicity of the prodrug alone” value is given as “significant amount of background cytotoxicity”.
Usually kcat stands for the maximal rate divided by the concentration of active sites. Turning to `CC(C)[C@@H](N)C(=O)OC[C@H]1O[C@@H](n2cc(F)c(=O)[nH]c2=O)C[C@@H]1O` [9.4], in data set [13], the Km was 215 µM and 218 µM; the kcat was 0.0005 s⁻¹.
With `CCOP(=O)(O)Cc1ccc([N+](=O)[O-])cc1` [9.8], in [14], the IC50 is 30 nM.
As to `O=C(Nc1cc(C(=O)O)cc(C(=O)O)c1)Oc1ccc([N+](=O)[O-])cc1` [9.9, 4-nitrophenyl N-(3,5-dicarboxyphenyl)carbamate], in [5], the Km came to 120 µM, the kcat is 0.3 s⁻¹, the kcat/Km is recorded as 0.15 E6 and the kcat/kun turned out to be 300.
The matching figures for `O=C(Nc1cc(C(=O)O)cc(C(=O)O)c1)Oc1ccc(Br)cc1` [9.12, 4-bromophenyl N-(3,5-dicarboxyphenyl)carbamate]: 80 µM, 0.1 s⁻¹, 0.075 E6 and 1 E5.
In general, Vmax refers to the rate approached at saturating substrate. On to `O=C(Nc1cc(C(=O)O)cc(C(=O)O)c1)Oc1ccc(F)cc1` [9.13, 4-Fluorophenyl N-[(3,5-dicarboxy)phenyl]carbamate], for which, in data set [5], the Vmax is 1.1 µM/min, the Km worked out at 41 µM, the kcat came to 0.12 s⁻¹ and the kcat/Km is reported as 0.17 E6. In addition, the kcat/kun in [5] is 4 E5.
For `COc1ccc(OC(=O)Nc2cc(C(=O)O)cc(C(=O)O)c2)cc1` [9.14, 4-methoxyphenyl N-(3,5-dicarboxyphenyl)carbamate], in [5], the Km amounted to 58 µM, the kcat came to 0.0817 s⁻¹, the kcat/Km is 0.08 E6 and the kcat/kun is 1.2 E6.
Turning to `CC(=O)c1ccc(OC(=O)Cc2ccccc2)cc1` [CH3 CO], in [15], the Km was approximately 3000 µM, the kcat result is “ca. 0.87 s^-1” and the kcat/Km entry was “ca. 0.282”.
On to `O=Cc1ccc(OC(=O)Cc2ccccc2)cc1` [CHO], for which, in data set [15], the Km is 250 µM, the kcat was 1.0 ± 0.1 s⁻¹, the kcat/Km is reported as 4.1 and the Kd was 90000 ± 10000 nM.
Take `O=C(Cc1ccccc1)Oc1ccc(Cl)cc1` [Cl]: in [15], the Km was 720 µM, the kcat is 1.7 ± 0.2 s⁻¹, the kcat/Km is recorded as 0.049 and the Kd was 180000 ± 40000 nM.
`Cc1ccc(OC(=O)Cc2ccccc2)cc1` [Me]: in [15], the Km is approximately 3000 µM, the kcat was 0.15 ± 0.03 s⁻¹ and the kcat/Km is recorded as 1.01.
For `O=C(Cc1ccccc1)Oc1ccc([N+](=O)[O-])cc1` [NO2], in data set [15], the Km was 53 µM, the kcat entry is given as “ca. 25 s^-1”, the kcat/Km result was “ca. 470” and the Kd was 1000 nM.
As to `C=C(O[C@@H]1C=C(C(=O)O)C=C[C@H]1O)C(=O)O` [chorismate, (-)-Chorismic acid], the Michaelis constant (Km) in data set [16] is 15 µM.

The values are drawn from patent US5807688A (priority 1995, dated 1998).
